What is called IC50 is the concentration needed to halve the response being measured.

The structures appear in SMILES notation.

The target of this experiment is T1, FSH receptor (Homo sapiens, UniProt P23945).
T1 sequence (P23945 18-695): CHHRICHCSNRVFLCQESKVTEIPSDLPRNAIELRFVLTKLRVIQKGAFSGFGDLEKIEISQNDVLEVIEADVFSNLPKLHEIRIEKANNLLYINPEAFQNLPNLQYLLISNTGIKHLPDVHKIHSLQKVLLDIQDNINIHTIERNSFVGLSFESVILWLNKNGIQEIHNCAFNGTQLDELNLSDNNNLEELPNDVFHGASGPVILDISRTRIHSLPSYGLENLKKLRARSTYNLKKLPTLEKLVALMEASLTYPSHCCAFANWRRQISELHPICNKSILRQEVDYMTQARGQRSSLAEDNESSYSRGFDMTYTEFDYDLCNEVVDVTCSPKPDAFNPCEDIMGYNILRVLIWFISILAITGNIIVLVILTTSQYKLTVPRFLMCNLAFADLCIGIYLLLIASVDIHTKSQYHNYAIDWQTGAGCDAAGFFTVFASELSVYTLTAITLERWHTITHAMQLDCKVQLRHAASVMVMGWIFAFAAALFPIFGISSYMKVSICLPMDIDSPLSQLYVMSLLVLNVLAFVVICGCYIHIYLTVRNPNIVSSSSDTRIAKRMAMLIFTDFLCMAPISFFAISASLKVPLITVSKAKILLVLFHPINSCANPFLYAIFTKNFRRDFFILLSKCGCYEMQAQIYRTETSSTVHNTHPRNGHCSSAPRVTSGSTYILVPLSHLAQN
As to the kind of experiment: FSH Receptor Radioligand Membrane Binding Standard Pharmacological Test Procedure. As to conditions: [125I]FSH binding to membranes of CHO cells stably transfected with the human FSH receptor. The arrangement: expressed in transfected cells. The method, then:
FSH Receptor Radioligand Membrane Binding Standard Pharmacological Test Procedure
Membrane Source: Chinese hamster ovarian cells stably transfected with the human FSH receptor were cultured (Ultra CHO medium containing 1% fetal bovine serum and 200 μg/mL G418) in and harvested. Cells were collected by centrifugation and resulting cell pellets were frozen and stored at −70° C.
Membrane Receptor Preparation: Frozen cell pellets were weighed and resuspended in binding buffer to a final concentration of 30 mg wet weight/mL. Cell suspension for each pellet was homogenized using a Tempest homogenizer (setting=1; 5 strokes; VirTis, Gardiner, N.Y.). Cell homogenates were pooled and 35 mL aliquots were transferred to 50-mL polypropylene copolymer centrifuge tubes (Nalgene cat. #3110-0500). Tubes were spun at 12,000 rpm (SS34 rotor) for 12 min at 4° C. Resulting supernatant fractions were discarded and pellets were stored at −70° C. until use. On the day of the procedure, 35 mL binding buffer was added to each tube (35 mL membrane suspension was sufficient for three 96-well plates). The membrane pellet was dispersed by trituration using a pipet. The resulting suspension wass homogenized using a Tempest homogenizer (3 strokes at setting=1).
Receptor Binding Test procedure: Membrane homogenate (100 μl) was added to each well of a 96-well microtiter plate (Falcon # 3077). All reactions were tested in triplicate. Test compound solutions (50 μl) were added to the designated wells. Total bound counts were determined by adding 50 μl binding buffer containing 4% DMSO to the designated wells. […] Plates were pre-incubated for 15 min at room temperature on shaking platform (setting=3). After preincubation [^125I]FSH (50 μl) was added to each well and plates were incubated for 2 h at room temperature on shaking platform (setting=3). The reaction was terminated by transfer of the membrane preparation to glass fiber filters (Blue Mat #11740; 102×256 mm; Skatron Instruments, Sterling, Va.) that had been pretreated with 1% BSA in wash buffer for at least 30 min, but not longer than 1 h using a 96-well microtiter vacuum harvester (Skatron Instruments). The membrane preparation was washed with 5 cycles of ice-cold wash buffer (200 μl/well/cycle) followed by a pulse wash of 3 cycles (100 μl/well/cycle). The total wash volume per well was 1.3 mL. The filters were dried by a 10 sec aspiration. Disks corresponding to each well of the microtiter plate were punched out of the filter mat into 12×75 mm polypropylene tubes. The radioactivity present on each of the disks was measured using a gamma counter.
An FSH dose response curve (0.001, 0.01, 0.1, 1, 10, and 100 nM) was generated for each binding procedure to monitor procedure to procedrue variability.
FSH Receptor Radioligand Membrane Binding Procedure Buffers and Reagents
Binding buffer is prepared in 11 volumes containing Trizma-HCl, MgCl2, CaCl2 and sodium azide, the pH was adjusted to 7.2 with NaOH, and stored at 4° C. until use. BSA was weighed out on the day of the procedure and added to the amount of buffer required for the procedure (usually 150 mL). The protease inhibitors were prepared as 1 mg/mL stocks (aprotinin, leupeptin, and phosphoramidon were prepared in binding buffer without BSA and protease inhibitors; pepstatin and PMSF were prepared in methanol), stored in 1 mL aliquots at −70° C., and added to the binding buffer on the day of the procedure.
Wash buffer was prepared containing Trizma-HCl, MgCl2 and EDTA, the pH was adjusted to 7.2 with NaOH, and stored at 4° C.
Filter Soak Buffer (pH 7.2)
BSA was weighed out on the day of the procedure and added to 300 mL of wash buffer. The filter soak buffer was used for two procedures before being discarded.
A portion of the stock solution was diluted in binding buffer to a concentration of 200 pM.
FSH Solution for Determining Non-specific Binding: Purified human FSH was prepared as a 100 μM solution in binding buffer without protease inhibitors. […]
In turn, `O=C(O)CS(=O)(=O)c1cccc(C(=O)Nc2ccc(C=Cc3ccc(NC(=O)c4cccc(S(=O)(=O)CC(=O)O)c4)cc3S(=O)(=O)O)c(S(=O)(=O)O)c2)c1` [Example 36b, [3-(4-{2-[4-(3-Carboxymethanesulfonyl-benzoylamino)-2-sulfo-phenyl]-vinyl}-3-sulfo-phenylcarbamoyl)-benzenesulfonyl]-acetic Acid] showed a concentration for half-maximal inhibition (IC50) of 21 µM. `COC(=O)CS(=O)(=O)c1cccc(C(=O)Nc2ccc(C=Cc3ccc(NC(=O)c4cccc(S(=O)(=O)CC(=O)OC)c4)cc3S(=O)(=O)O)c(S(=O)(=O)O)c2)c1` [Example 32d, [3-(4-{2-[4-(3-Methoxycarbonylmethanesulfonyl-benzoylamino)-2-sulfo-phenyl]-vinyl}-3-sulfo-phenylcarbomoyl)-benzenesulfonyl]-acetic Acid, Methyl Ester] yielded an IC50 of 12.5 µM.

Turning to `O=C(Nc1ccc(/C=C/c2ccc(NC(=O)c3ccc(OCc4ccco4)c(S(=O)(=O)N4CCOCC4)c3)cc2S(=O)(=O)O)c(S(=O)(=O)O)c1)c1ccc(OCc2ccco2)c(S(=O)(=O)N2CCOCC2)c1` [Example 30u, 2,2′-[(E)-1,2-Ethenediyl]bis[5-[[4-(2-furanylmethoxy)-3-(4-morpholinylsulfony)benzoyl]amino]benzenesulfonic Acid]], the IC50 was 10 µM. As for `COCCSc1ccc(C(=O)Nc2ccc(/C=C/c3ccc(NC(=O)c4ccc(SCCOC)c(S(=O)(=O)N5CCOCC5)c4)cc3S(=O)(=O)O)c(S(=O)(=O)O)c2)cc1S(=O)(=O)N1CCOCC1` [Example 32l], the figure is 4.1 µM; as for `COc1ccc(C(=O)Nc2ccc(CS(=O)(=O)Cc3ccc(NC(=O)c4ccc(OC)c(S(=O)(=O)N5CCOCC5)c4)cc3S(=O)(=O)O)c(S(=O)(=O)O)c2)cc1S(=O)(=O)N1CCOCC1` [Example 50b, 2,2′-[Sulfonylbis(methylene)]bis[5-[[4-methoxy-3-(4-morpholinylsulfonyl)benzoyl]amino]benzenesulfonic acid]], 41 µM.

With `O=C(Nc1ccc(CCc2ccc(NC(=O)c3ccc(CC4CCCO4)c(S(=O)(=O)N4CCOCC4)c3)cc2S(=O)(=O)O)c(S(=O)(=O)O)c1)c1ccc(CC2CCCO2)c(S(=O)(=O)N2CCOCC2)c1` (stereo not shown) [Example 32q, 2,2′-(1,2-Ethanediyl)bis[5-[[4-(tetrahydro-2-furanmethyl)-3-(4-morpholinylsulfonyl)benzoyl]amino]benzenesulfonic Acid]], the concentration for half-maximal inhibition (IC50) came to 2.4 µM.

For the compound `COCCNc1ccc(C(=O)Nc2ccc(/C=C/c3ccc(NC(=O)c4ccc(NCCOC)c(S(=O)(=O)N5CCOCC5)c4)cc3S(=O)(=O)O)c(S(=O)(=O)O)c2)cc1S(=O)(=O)N1CCOCC1` [Example 30l, 2,2′-[(E)-1,2-Ethenediyl]bis[5-[[4-[(2-methoxyethyl)amino]-3-(4-morpholinylsulfonyl)benzoyl]amino]benzenesulfonic Acid]], the IC50 was determined as 3.9 µM. `O=C(Nc1ccc(/C=C/c2ccc(NC(=O)c3cccc(S(=O)(=O)N4CCOCC4)c3)cc2S(=O)(=O)O)c(S(=O)(=O)O)c1)c1cccc(S(=O)(=O)N2CCOCC2)c1` [Example 33a, 2,2′-[(E)-1,2-Ethenediyl]bis[5-[[3-(4-morpholinylsulfonyl)benzoyl]amino]benzenesulfonic Acid]] displayed a half-inhibitory concentration (IC50) of 6.9 µM. In the case of `COc1ccc(C(=O)Nc2ccc(CSCc3ccc(NC(=O)c4ccc(OC)c(S(=O)(=O)N5CCOCC5)c4)cc3S(=O)(=O)O)c(S(=O)(=O)O)c2)cc1S(=O)(=O)N1CCOCC1` [Example 50a, 2,2′-[Thiobis(methylene)]bis[5-[[4-methoxy-3-(4-morpholinylsulfonyl)benzoyl]amino]benzenesulfonic Acid]], the IC50 was determined as 34 µM. In turn, `NC(=O)CS(=O)(=O)c1cccc(C(=O)Nc2ccc(/C=C/c3ccc(NC(=O)c4cccc(S(=O)(=O)CC(N)=O)c4)cc3S(=O)(=O)O)c(S(=O)(=O)O)c2)c1` [Example 37d, 5-[[3-[(2-Amino-2-oxoethyl)sulfonyl]benzoyl]amino]-2-[(E)-2-[4-[[3-[(2-amino-2-oxoethyl)sulfonyl]benzoyl]amino]-2-sulfophenyl]ethenyl]-benzenesulfonic Acid] displayed a concentration for half-maximal inhibition (IC50) of 4.3 µM.

Source of the values: patent publication US6355633B1, “Aryl sulfonic acids and derivatives as FSH antagonists” (American Home Products Corporation, priority 1999, dated 2002).
